In ChEMBL document CHEMBL1136094, “Novel, potent and selective cyclin D1/CDK4 inhibitors: indolo[6,7-a]pyrrolo[3,4-c]carbazoles” (Bioorg Med Chem Lett, 2003):
pIC50: −log10 of the molar value.

Legend:
CaM kinase II = CaM kinase II (Homo sapiens, UniProt Q13557+Q13555+Q13554+Q9UQM7); test: Inhibitory activity against Calcium/calmodulin-dependent protein kinase type II; assay type: protein assay
[1] = target: cAMP-dependent protein kinase (PKA) (Homo sapiens, UniProt P22694+P17612+P22612); test: Inhibitory activity against Protein kinase A (Histone); assay type: protein assay
HCT-116 = test: In vitro antiproliferative activity against human carcinoma cell line HCT116 (colon); assay type: functional, cell-based
NCI-H460 = test: In vitro antiproliferative activity against human carcinoma cell line H460 (lung); assay type: functional, cell-based
[2] = target: T1, Cyclin-dependent kinase 4/cyclin D1 (Homo sapiens, UniProt P11802); test: Inhibitory activity against Cyclin D1-cyclin-dependent kinase 4 in enzymatic assay by measuring phosphorylation of RbING; assay type: protein-complex assay
[3] = target: T1, Cyclin-dependent kinase 4/cyclin D1; test: Inhibitory activity against Cyclin D1-cyclin-dependent kinase 4 in enzymatic assay by measuring phosphorylation of Rb21; assay type: protein-complex assay
[4] = target: Cyclin-dependent kinase 2/cyclin E (Homo sapiens, UniProt P24941); test: Inhibitory activity against Cyclin E-cyclin-dependent kinase 2 in enzymatic assay by measuring phosphorylation of RbING; assay type: protein-complex assay

T1 sequence (P11802 whole entry): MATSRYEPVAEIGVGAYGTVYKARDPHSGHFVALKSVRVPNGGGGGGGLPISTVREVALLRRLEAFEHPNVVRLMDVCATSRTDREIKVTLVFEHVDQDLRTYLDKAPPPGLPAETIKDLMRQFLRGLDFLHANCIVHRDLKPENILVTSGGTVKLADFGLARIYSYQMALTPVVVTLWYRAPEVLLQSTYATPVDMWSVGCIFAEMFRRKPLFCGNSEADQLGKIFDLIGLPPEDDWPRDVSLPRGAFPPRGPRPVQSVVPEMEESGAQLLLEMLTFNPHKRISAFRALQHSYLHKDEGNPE
T1 sequence (P24385 whole entry, further chain): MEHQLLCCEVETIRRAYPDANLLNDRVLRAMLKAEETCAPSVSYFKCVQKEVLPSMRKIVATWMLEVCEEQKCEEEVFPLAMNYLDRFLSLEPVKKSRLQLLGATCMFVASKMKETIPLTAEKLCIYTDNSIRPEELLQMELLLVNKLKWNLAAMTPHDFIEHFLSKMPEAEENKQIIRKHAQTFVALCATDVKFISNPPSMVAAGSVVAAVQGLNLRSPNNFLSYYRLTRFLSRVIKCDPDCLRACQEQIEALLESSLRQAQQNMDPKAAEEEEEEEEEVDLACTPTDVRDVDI

| SMILES | IC50 (CaM kinase II) [µM] | IC50 [1] [µM] | pIC50 (HCT-116) | pIC50 (NCI-H460) | pIC50 [2] | pIC50 [3] | pIC50 [4] |
| --- | --- | --- | --- | --- | --- | --- | --- |
| Cn1ccc2ccc3c4[nH]c5c(CCCN6CCOCC6)cccc5c4c4c(c3c21)C(=O)NC4=O | 0.516 | > 20 | 5.55 | 5.77 | 7.25 | 7.37 | 5.88 |
| COc1ccc2c3c4c(c5c(ccc6ccn(C)c65)c3n(CCCN3CCOCC3)c2c1)C(=O)NC4=O | > 20 | > 20 | 5.77 | 5.79 | 7.16 | 7.68 | 6.15 |
| Cn1ccc2ccc3c4[nH]c5cccc(CO)c5c4c4c(c3c21)C(=O)NC4=O |  | > 20 | < 5.00 | < 5.00 | 6.81 | 6.67 | < 5.70 |
| Cc1cc2ccn(C)c2c2c3c(c4c5ccccc5n(CCCCO)c4c12)C(=O)NC3=O |  | 11.7 | < 5.00 | < 5.00 | < 5.70 |  |  |
| COc1ccc2c3c4c(c5c(ccc6ccn(C)c65)c3n(CCCN3CCN(C)CC3)c2c1)C(=O)NC4=O | 11.6 | 2.93 | 6.35 | 6.05 | 7.02 | 7.85 | 5.91 |
| Cn1ccc2ccc3c4[nH]c5cc(C#N)ccc5c4c4c(c3c21)C(=O)NC4=O |  | > 20 | < 5.00 | < 5.00 | 7.54 | 7.96 | 8.00 |
| Cn1ccc2ccc3c4[nH]c5ccc(F)cc5c4c4c(c3c21)C(=O)NC4=O |  | > 20 | < 5.00 | < 5.00 | 7.08 | 7.41 | < 6.70 |
| Cn1ccc2ccc3c4[nH]c5cccc(F)c5c4c4c(c3c21)C(=O)NC4=O |  | > 20 | < 5.70 | < 5.00 | 7.15 | 7.09 | < 5.70 |
| Cn1ccc2ccc3c(c4c(c5c6ccccc6n(CCCO)c35)C(=O)NC4=O)c21 |  | > 2 | 5.87 | 5.95 | 7.02 | 7.38 | 7.17 |
| Cn1ccc2ccc3c4[nH]c5cc(OCc6ccccc6)ccc5c4c4c(c3c21)C(=O)NC4=O |  | 3.29 | 5.19 | < 5.00 | 6.91 | 7.60 | 6.48 |
| COc1ccc2c(c1)[nH]c1c2c2c(c3c1c(C)cc1ccn(C)c13)C(=O)NC2=O |  | > 20 | 5.84 | 5.89 | 7.38 | 8.15 | 7.24 |
| Cn1ccc2ccc3c4[nH]c5c(CCCNCCO)cccc5c4c4c(c3c21)C(=O)NC4=O | 0.266 | 8.31 | 6.11 | 5.96 | 7.40 | 7.72 | 6.25 |
| CCn1ccc2ccc3c(c4c(c5c6ccccc6n(CCCO)c35)C(=O)NC4=O)c21 |  | 5.31 | 5.92 | 5.75 | 6.87 | 7.05 | 6.40 |
| Cc1cc2ccn(C)c2c2c3c(c4c5ccc(F)cc5[nH]c4c12)C(=O)NC3=O |  | > 20 | 6.24 | 5.99 | 7.30 | 8.22 | 7.64 |
| COc1ccc2c3c4c(c5c(ccc6ccn(C)c65)c3n(CCO)c2c1)C(=O)NC4=O |  | 1.62 | 5.39 | 5.88 | 7.33 | 7.62 | 7.00 |
| COc1ccc2c(c1)[nH]c1c3ccc4cc[nH]c4c3c3c(c21)C(=O)NC3=O |  | 11.4 | 5.67 | 5.72 | 7.17 | 7.44 | 6.90 |
| CCn1ccc2ccc3c4[nH]c5ccccc5c4c4c(c3c21)C(=O)NC4=O |  | > 2 | 5.34 | < 5.00 | 7.23 | 7.72 |  |
| O=C1NC(=O)c2c1c1c3ccccc3[nH]c1c1[nH]c3ccccc3c21 [STAUROSPORINE AGLYCON] |  |  | 6.07 | 6.23 | 6.85 |  | 6.05 |
| CCOc1ccc2c(c1)[nH]c1c3ccc4ccn(C)c4c3c3c(c21)C(=O)NC3=O |  | > 20 | 5.63 | 5.49 | 7.36 | 8.00 | 6.49 |
| Cn1ccc2ccc3c4[nH]c5ccc(Br)cc5c4c4c(c3c21)C(=O)NC4=O |  |  |  |  | < 5.70 |  |  |
| Cn1ccc2ccc3c4[nH]c5cc(Br)ccc5c4c4c(c3c21)C(=O)NC4=O |  | > 20 | 5.97 | 6.14 | 7.42 | > 7.89 | 7.12 |
| Cc1ccc2[nH]c3c4ccc5ccn(C)c5c4c4c(c3c2c1)C(=O)NC4=O |  | 4.06 | 5.54 | 5.47 | 6.41 | 6.39 | 5.97 |

| SMILES | IC50 (CaM kinase II) [µM] | IC50 [1] [µM] | pIC50 (HCT-116) | pIC50 (NCI-H460) | pIC50 [2] | pIC50 [3] | pIC50 [4] |
| --- | --- | --- | --- | --- | --- | --- | --- |
| Cc1cc2ccn(C)c2c2c3c(c4c5ccccc5n(C)c4c12)C(=O)NC3=O |  | 3.9 | 5.33 | < 5.00 | 7.04 | 7.35 | 6.57 |
| Cn1ccc2ccc3c4[nH]c5ccc(C(F)(F)F)cc5c4c4c(c3c21)C(=O)NC4=O |  |  | 5.15 | 5.11 | < 5.70 |  |  |
| O=C1NC(=O)c2c1c1c(ccc3cc[nH]c31)c1[nH]c3ccccc3c21 |  | > 2 | 5.84 | 5.84 | 7.44 | 7.66 | 7.19 |
| Cn1ccc2ccc3c4[nH]c5cccc(Br)c5c4c4c(c3c21)C(=O)NC4=O |  | > 20 | 5.33 | 5.45 | 6.77 | 6.87 |  |
| Cc1cc2ccn(C)c2c2c3c(c4c5ccccc5n(CCCO)c4c12)C(=O)NC3=O |  |  | 5.41 | 5.32 | 6.17 |  |  |
| Cn1ccc2ccc3c4[nH]c5c(CCCO)cccc5c4c4c(c3c21)C(=O)NC4=O |  | > 20 | 5.52 | 5.63 | 6.77 | 7.40 | 6.25 |
| Cn1ccc2cc(F)c3c(c4c(c5c6ccccc6n(CCCO)c53)C(=O)NC4=O)c21 |  |  | 5.62 | 5.61 | 6.46 | 6.35 |  |
| O=C1NC(=O)c2c1c1c(ccc3cc[nH]c31)c1c2c2ccccc2n1CCCO |  | > 20 | 6.12 | 5.97 | 7.18 | 7.92 | 8.10 |
| COc1ccc2[nH]c3c4ccc5ccn(C)c5c4c4c(c3c2c1)C(=O)NC4=O |  | > 20 | < 5.00 | < 5.00 | 6.28 | 6.17 | < 5.70 |
| Cn1ccc2cc(F)c3c4[nH]c5ccccc5c4c4c(c3c21)C(=O)NC4=O |  | > 20 | 5.46 | 5.54 | 7.17 | 7.80 | 7.07 |
| Cc1cc2ccn(C)c2c2c3c(c4c5ccc(C(F)(F)F)cc5[nH]c4c12)C(=O)NC3=O |  | > 20 | 5.06 | 5.62 | 7.04 | 7.60 | < 5.70 |
| CN1CCN(CCCc2cccc3c2[nH]c2c4ccc5ccn(C)c5c4c4c(c32)C(=O)NC4=O)CC1 | 0.382 | 16.6 | 5.86 | 5.83 | 7.28 |  | 5.78 |
| Cc1ccc2c(c1)[nH]c1c3ccc4ccn(C)c4c3c3c(c21)C(=O)NC3=O |  | > 20 | 5.42 | 5.47 | 7.32 | 7.74 | 6.49 |
| COc1cccc2c1[nH]c1c3ccc4ccn(C)c4c3c3c(c21)C(=O)NC3=O |  | > 20 | 6.00 | 5.57 | 7.21 | 7.40 | < 5.70 |
| COc1cccc2[nH]c3c4ccc5ccn(C)c5c4c4c(c3c12)C(=O)NC4=O |  |  | < 5.00 | < 5.00 | < 5.70 |  |  |
| O=C1NC(=O)c2c1c1c(ccc3cc[nH]c31)c1[nH]c3cc(OCc4ccccc4)ccc3c21 |  |  | < 5.00 | < 5.00 | 6.73 | 6.42 |  |
| O=C1NC(=O)c2c1c1c(ccc3cc[nH]c31)c1[nH]c3cc(O)ccc3c21 |  | 0.949 | 6.77 | 6.64 | 7.43 | 7.77 | 8.22 |
| Cn1ccc2ccc3c4[nH]c5c(Br)cccc5c4c4c(c3c21)C(=O)NC4=O |  |  | 4.77 | 4.86 | 7.03 |  |  |
| Cn1ccc2ccc3c4[nH]c5cc(F)ccc5c4c4c(c3c21)C(=O)NC4=O |  | > 20 | < 5.00 | < 5.00 | 7.42 | 7.96 | 8.05 |
| Cn1ccc2ccc3c4[nH]c5cc(C(F)(F)F)ccc5c4c4c(c3c21)C(=O)NC4=O |  | > 20 | < 5.00 | 5.45 | 7.12 | 8.05 | 6.65 |
| Cc1cc2ccn(C)c2c2c3c(c4c5ccccc5[nH]c4c12)C(=O)NC3=O |  | > 20 | 5.70 | 5.65 | 7.55 | 8.70 | 7.15 |
| CCc1ccc2c(c1)[nH]c1c3ccc4ccn(C)c4c3c3c(c21)C(=O)NC3=O |  | > 20 | 5.45 | 5.13 | 7.00 | 7.66 |  |
